Data as given in patent EP0624573A1, “Iodo vitamin D3 compounds and method for preparing same” (WISCONSIN ALUMNI RESEARCH FOUNDATION, priority 1993, dated 1994).

Key:
HL-60 cells = assay: HL-60 differentiation assay, NBT (nitroblue tetrazolium reduction); assay type: cell-based, human; conditions: for percent of HL-60 cells having differentiated to monocytes: NBT assay, concentration of 1 x 10⁻⁷ molar (Fig. 1); for potency in promoting the differentiation of leukemia cells: in words, compared with 1α,25-dihydroxyvitamin D₃ (Fig. 1)
Procedure: This is illustrated by the biological assay results obtained for the claimed 22-iodo-vitamin D₃ compounds, which are summarized in Figs. 1 and 2, and Table 1. […] Differentiation activity was assessed by a standard differentiation assay, abbreviated in Fig. 1 as NBT (nitroblue tetrazolium reduction). The assay was conducted according to known procedures, as given, for example, by DeLuca et al U. S. Patent 4,717,721 and Ostrem et al, J. Biol. Chem. 262, 14164, 1987. For the assay, the differentiation activity of the test compounds is expressed in terms of the percent of HL-60 cells having differentiated to monocytes in response to a given concentration of test compound.

[1] = Bone calcium mobilization (serum calcium) in vitamin D-deficient, low calcium diet rats; assay type: in vivo; conditions: for Bone Calcium Mobilization (Serum Calcium): serum on day 7
Procedure: (§1) Rats were fed the vitamin D-deficient, low calcium (0.02%) diet for 3 weeks and then given the indicated dose in 0.1 ml propylene glycol:ethanol (95:5) intraperitoneally each day for 6 days. On day 7, serum was analyzed for calcium and the duodenum used to measure intestinal calcium transport as described by Martin et al. Am. J. Physiol.

[2] = Intestinal calcium transport in vitamin D-deficient, low calcium diet rats; assay type: in vivo; conditions: for Intestinal Calcium Transport (Serosal/Mucosal Ratio): duodenum on day 7
Procedure: as §1

[3] = dose 0.1 µg/d/6 days intraperitoneally
[4] = dose 1.0 µg/d/6 days intraperitoneally

Q: With `C=C1/C(=C\C=C2/CCC[C@]3(C)[C@@H]([C@H](C)CCCC(C)(C)O)CC[C@@H]23)C[C@@H](O)C[C@@H]1O` [1,25-(OH)₂D₃, 1α,25-dihydroxyvitamin D₃, reference compound] as the compound, how does the “percent of HL-60 cells having differentiated to monocytes” value (HL-60 cells) read?
A: ~90%

Q: What about the “Bone Calcium Mobilization (Serum Calcium)” value [1, 3] of the same compound?
A: 5.9 ± 0.3 mg/100 ml

Q: And the “Intestinal Calcium Transport (Serosal/Mucosal Ratio)” value [2, 3]?
A: 11.2 ± 1.2

Q: Which “percent of HL-60 cells having differentiated to monocytes” value (HL-60 cells) does the source give for `C=C1/C(=C\C=C2/CCC[C@]3(C)[C@@H]([C@H](C)[C@@H](I)CCC(C)(C)O)CC[C@@H]23)C[C@@H](O)C[C@@H]1O` [compound 9, (22S)-iodo-1α,25-dihydroxyvitamin D₃] here?
A: the same degree of differentiation

Q: And the “potency in promoting the differentiation of leukemia cells” value (HL-60 cells)?
A: as potent as 1α,25-dihydroxyvitamin D₃

Q: And the “Bone Calcium Mobilization (Serum Calcium)” value [1, 4]?
A: 4.9 ± 0.1 mg/100 ml

Q: What about the “bone calcium mobilizing activity” value ([1]; in words, 1µg per day for six days) of the same compound?
A: little or no bone calcium mobilizing activity

Q: What about the “biological activity in intestinal calcium transport relative to that of 1,25-(OH)₂D₃” value ([2]; Table 1 (1.0 µg/d versus 0.1 µg/d of 1,25-(OH)₂D₃)) of the same compound?
A: about double

Q: And the “Intestinal Calcium Transport (Serosal/Mucosal Ratio)” value [2, 4]?
A: 22.8 ± 1.4

Q: Which results are given for `C=C1/C(=C\C=C2/CCC[C@]3(C)[C@@H]([C@H](C)[C@H](I)CCC(C)(C)O)CC[C@@H]23)C[C@@H](O)C[C@@H]1O` [compound 11, (22R)-iodo-1α,25-dihydroxyvitamin D₃]?
A: percent of HL-60 cells having differentiated to monocytes (HL-60 cells): the same degree of differentiation; potency in promoting the differentiation of leukemia cells (HL-60 cells): as potent as 1α,25-dihydroxyvitamin D₃
